System: MIA-MSLN cells
Experiment: Anchorage independent growth assay in soft agar
Type: cell-based, human
Settings: MIA-MSLN-miR-198 vs MIA-MSLN, 15 days, ImageJ
Protocol: A soft agar assay for colony formation was performed by coating 35 mm dishes with a combination of 0.5% base agar and 0.7% top agar. Base agar preparation: 1% LMP Agarose (DNA grade) (Baylor College of Medicine) was melted in 1× incomplete DMEM, microwaved, and cooled to 40° C. in a water bath. Equal volumes of 20% FBS DMEM pre-warmed to 40° C. in water bath were mixed to give 0.5% Agar+10% DMEM, of which 1.5 ml/35 m Petri dish was added and allowed to set at room temperature.
Top agar preparation: 0.7% LMP Agarose (DNA grade) in 1×DMEM was prepared in the same manner as above. Cells were trypsinized and diluted to 0.1×10^6 cells/ml, in the 20% FBS DMEM; 5,000 cells/dish were plated in duplicate. The plates were then incubated at 37° C. in a humidified incubator for 15 days. Following incubation, the plates were stained with 0.5 ml of 1% MTT for 2 h, and colonies were photographed using a dissecting microscope. Images were analyzed using IMAGEJ software.

miR-198: microRNA-198, SEQ ID NO: 1 gguccagaggggagauagg; used as transfected precursors (Ambion) or Lenti-miR stable overexpression (GGUCCAGAGGGGAGAUAGG; listed as RNA, chemistry not given here; listed as Homo sapiens)
reduction in mean threshold intensity of soft agar colonies: ~20 fold

Reference: patent publication US12134769B2, “MicroRNA-198 as a tumor suppressor in ovarian cancer” (Baylor College of Medicine, priority 2011, dated 2024)
